Experimental data as given in PubChem BioAssay (NCI).
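Protocol summary: plate cells (96-well), add compound at 5 concentrations, incubate 48 h, interpolate endpoints linearly. At the GI50, growth is halved. TGI denotes the concentration required for complete inhibition of growth.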

What was measured:
Test in all cases: DTP human tumour cell line panel, 48 h
HCT-116 colon = test system: HCT-116 colon
HL-60(TB) leukemia = test system: HL-60(TB) leukemia
HOP-92 NSCLC = test system: HOP-92 NSCLC
MOLT-4 leukemia = test system: MOLT-4 leukemia
OVCAR-4 ovarian = test system: OVCAR-4 ovarian
SK-MEL-28 melanoma = test system: SK-MEL-28 melanoma
SN12C renal = test system: SN12C renal
SNB-19 CNS = test system: SNB-19 CNS
SW-620 colon = test system: SW-620 colon
TK-10 renal = test system: TK-10 renal

| SMILES | TGI (HCT-116 colon) [µM] | TGI (HL-60(TB) leukemia) [µM] | TGI (HOP-92 NSCLC) [µM] | TGI (MOLT-4 leukemia) [µM] | TGI (OVCAR-4 ovarian) [µM] | TGI (SK-MEL-28 melanoma) [µM] | TGI (SN12C renal) [µM] | TGI (SNB-19 CNS) [µM] | TGI (SW-620 colon) [µM] | TGI (TK-10 renal) [µM] | GI50 (HCT-116 colon) [µM] | GI50 (HOP-92 NSCLC) [µM] | GI50 (MOLT-4 leukemia) [µM] | GI50 (OVCAR-4 ovarian) [µM] | GI50 (SK-MEL-28 melanoma) [µM] | GI50 (SN12C renal) [µM] | GI50 (SNB-19 CNS) [µM] | GI50 (SW-620 colon) [µM] | GI50 (TK-10 renal) [µM] |
| --- | --- | --- | --- | --- | --- | --- | --- | --- | --- | --- | --- | --- | --- | --- | --- | --- | --- | --- | --- |
| O=C(NC(Cc1ccc(I)cc1)C(=O)O)c1ccc(Cl)cc1 (configuration not stated) | > 100 | > 100 | > 100 | > 100 | > 100 | > 100 | > 100 | > 100 | > 100 |  |  |  |  |  |  |  |  |  |  |
| CO/N=C(\C)c1cccc(Nc2nc3ccccc3c3occc23)c1 | 23.8 | 59.5 | 20.3 | 37.3 | 31.8 | 27.6 | 26.9 | 31 |  | 26 |  |  |  |  |  |  |  |  |  |
| COc1cc([N+](=O)[O-])ccc1N1C(=O)C2c3[nH]c4ccccc4c3C3CCC(C(C)(C)C)CC3C2C1=O (configuration not stated) | > 100 | > 100 | > 100 | > 100 | > 100 | 34.7 | > 100 |  | > 100 | > 100 |  |  |  |  |  |  |  |  |  |
| O=C1OC2(OC2c2ccc(Cl)cc2)c2ccccc21 (configuration not stated) | > 100 | > 100 | > 100 | > 100 | > 100 | > 100 | > 100 | > 100 | > 100 | > 100 |  |  |  |  |  |  |  |  |  |
| CNC(C)Cc1ccccc1OC (configuration not stated) | > 100 | > 100 | > 100 | > 100 | > 100 | > 100 | > 100 | > 100 | > 100 | > 100 |  |  |  |  |  |  |  |  |  |
| Cc1ccc([N+](=O)[O-])cc1S(=O)(=O)Nc1ccc(C2=NOC(c3ccccc3O)C2)cc1 (configuration not stated) | 34.5 | 21.4 | > 100 | 9.04 | 22.4 | > 100 | > 100 | 17.7 | > 100 | > 100 |  |  |  |  |  |  |  |  |  |
| CCOP(=O)(OCC)C(Nc1cccc(F)c1)c1ccc(N(C)C)cc1 (configuration not stated) | > 100 | > 100 | > 100 | > 100 | > 100 | > 100 | > 100 | > 100 | > 100 | > 100 |  |  |  |  |  |  |  |  |  |
| CC1C(=O)C(C)C(c2ccco2)N(N=O)C1c1ccco1 (configuration not stated) | > 100 | > 100 | > 100 | > 100 | > 100 | > 100 | > 100 | > 100 | > 100 |  |  |  |  |  |  |  |  |  |  |
| O=c1c2cc(S(=O)(=O)O)ccc2nc(COc2ccc(Oc3ccc(Cl)cc3Cl)cc2)n1C(=S)Nc1ccc(Cl)cc1 | 53.3 | 4.07 | 43.3 |  | 59.3 |  | 34.7 | > 100 | 49.4 | 40.4 |  |  |  |  |  |  |  |  |  |
| Cc1ccc(N=NC(C2=NC(=O)CS2)c2nc3ccccc3[nH]2)cc1 (configuration not stated) | > 100 | > 100 | > 100 | 76.7 | > 100 | > 100 | > 100 | > 100 | > 100 | > 100 |  |  |  |  |  |  |  |  |  |
| C[n+]1c2ccccc2c(CNC(CS)C(=O)O)c2ccccc21 (configuration not stated) | 37.8 | 43.4 | 52 | 36.7 | > 100 |  | > 100 | > 100 | > 100 | > 100 |  |  |  |  |  |  |  |  |  |
| CCOC(=O)Nc1cc2c(c(N)n1)N=C(c1ccc3ccccc3c1)CN2 | 1.49 | > 100 | 6.16 |  | > 64.6 | > 100 | 5.29 |  | 31.4 | > 60.7 |  |  |  |  |  |  |  |  |  |
| CS(=O)(=O)OCCN(CCOS(C)(=O)=O)c1ccc(/C=N/Nc2ncnc3nc[nH]c23)cc1 | 59.9 | 27.1 | 63.5 | 40 | 60 | 63.4 | > 100 | > 100 | 66.8 | 63.6 |  |  |  |  |  |  |  |  |  |
| Nc1nc(OCC2CCCCC2)c2[nH]cnc2n1 | 74 | 59.8 | 42.7 | > 68.8 | 42.3 | 99.2 | 56.3 | > 100 | > 100 | 30.5 |  |  |  |  |  |  |  |  |  |
| CN(C)c1ccc(/C=c2/c3ccccc3n3c2cc(NC(=O)NCCC[N+](C)(C)C)[n+]3C)cc1 | > 100 | > 100 | > 100 | > 100 | 50.1 | > 100 |  | > 100 | > 100 | > 100 |  |  |  |  |  |  |  |  |  |
| NCCNCCNc1ccc(NCCNCCN)c2c1C(=O)c1c(O)ccc(O)c1C2=O | > 100 |  | > 100 | > 100 | > 100 | > 100 | > 100 | > 100 | > 100 | > 100 |  |  |  |  |  |  |  |  |  |
| CCO[C@]12CCC[C@H]1[C@@H]1C(=O)c3ccccc3C(=O)C1=C(C)O2 |  | > 100 | > 100 | > 100 | 97.9 | > 100 | > 100 | > 100 | > 100 | > 100 |  |  |  |  |  |  |  |  |  |
| CC1(C=O)CCC23COC4(CCC5C6(C)CCC(OC7OCC(OC8OC(CO)C(O)C(OC9OC(CO)C(O)C(O)C9O)C8OC8OCC(O)C(O)C8O)C(O)C7OC7OC(CO)C(O)C(O)C7O)C(C)(C)C6CCC5(C)C4(C)CC2O)C3C1 (configuration not stated) | 2.74 | 1.41 | 1.53 |  | 2.38 |  |  | 1.09 | 3.14 | 3.33 |  |  |  |  |  |  |  |  |  |
| CCCCCCCN(CCCCCCC)CC(O)c1cc2ccccc2c2cc(Br)ccc12 (configuration not stated) | > 100 | > 100 | 77 | > 100 | > 100 | > 100 | 46.7 | > 100 | > 100 | > 100 |  |  |  |  |  |  |  |  |  |
| COc1cc([N+](=O)[O-])ccc1NC(=O)c1cccc([N+](=O)[O-])c1O | > 100 | 55.4 |  | > 100 | > 100 | > 100 | 71.8 | > 100 | > 100 |  |  |  |  |  |  |  |  |  |  |
| Oc1ccc(-c2nc3cc(F)ccc3s2)cc1 | 42.1 | > 100 | 47.1 | > 100 | 36.9 | 42.8 | 53.3 | > 100 | > 100 | 56 |  |  |  |  |  |  |  |  |  |
| c1ccc([P+](c2ccccc2)(c2ccccc2)c2ccc(-c3ccc([P+](c4ccccc4)(c4ccccc4)c4ccccc4)cc3)cc2)cc1 | 58 | > 100 |  | > 100 | 94.8 | > 100 | 97.1 | > 100 | > 100 | > 100 |  |  |  |  |  |  |  |  |  |
| CC1(O)COCCCCOc2c(CN)cccc2NC(=O)c2nc(cnc2N)-c2ccc(cc2)S(=O)(=O)C(C)(C)C1 (configuration not stated) | 1.12 |  | 2.74 | 2.4 | 2.71 | 3.47 | 2.66 | 2.74 | 1.98 | 3.34 | 0.129 | 1.31 | 0.019 | 1.29 | 1.83 | 1.27 | 1.33 | 0.42 | 1.64 |
| CC1CC(Br)C(=O)O1 (configuration not stated) | > 100 | > 100 | > 100 | > 100 | > 100 | > 100 | > 100 | > 100 | > 100 | > 100 |  |  |  |  |  |  |  |  |  |
| N=C(N)SCc1cccc([N+](=O)[O-])c1 | > 83.7 | 43.6 | 60.9 | > 91.2 | > 83.1 | 98.9 | > 96.1 |  | > 100 |  |  |  |  |  |  |  |  |  |  |
| CCc1ccc2c(c1)C(=O)c1c-2n(CCCN)c(=O)c2cc([N+](=O)[O-])ccc12 | 1.89 |  | 4.06 |  | 3 | 3.2 | 2.95 | 2.42 |  | 2.49 | 0.573 | 2.34 |  | 1.39 | 1.68 | 1.48 | 1.17 |  | 1.2 |
| c1c2c(cc3c1OCO3)-c1cc3ccc4c(c3c[n+]1CC2)OCO4 | > 5.82 | > 4.93 | > 12.5 | > 12.5 | > 12.5 | > 12.5 | > 12.5 | > 8.78 | > 12.5 | > 12.5 |  |  |  |  |  |  |  |  |  |
